Experimental data taken from patent US20090105562A1, “SYSTEM AND METHODS FOR SCREENING OR ANALYZING TARGETS” (TAIPEI VETERANS GENERAL HOSPITAL, priority 2007, published 2009).

What was measured:
Bcl-2 = Bcl-2 protein expression in NSCs by western blot and immunocytochemistry; type: cell-based, rat
Experimental: After the treatment with IM, the cell lysates of the NSCs were collected and the concentration of protein was determined by using the Protein Assay kit (Bio-Rad, Hercules, Calif., USA). Cell extracts with sample buffer were boiled for 5 minutes and then separated by 10% SDS-PAGE gel. After electrophoresis, the gel was transferred onto a PVDF membrane for immunoblotting. The membrane was first blocked by incubation in non-fat milk at room temperature for 2 hours, then incubated with anti-Bcl-2 antibody (Upstate Biotechnology Inc, Waltham, Mass., USA), and anti-β actin (Chemicon International Inc, Temecula, Calif., USA) for 2 hours at room temperature, washed five times with Tris-Buffered Saline Tween-20 (TBST), and then incubated further at room temperature with horseradish peroxidase-conjugated secondary antibody for 2 hours. Then the membrane was washed six times with TBST and specific bands were made visible by chemiluminescence (Santa Cruz Biotechnology, Santa Cruz, Calif., USA).
Double-stranded, short interfering RNA (siRNA) of BDNF and Bcl-2 were chemically synthesized by Ambion Inc., Austin, Tex., USA). The sense and antisense sequences of BDNF were designed as follows: Sense: […]tt; Antisense: AGCTTAAAAAGAG CTGtt, starting from nucleotide 137 of the Bcl-2 sequence (accession number L14680). The sense and antisense sequences of Bcl-2 were designed as follows: Sense: GCGCUGGAUAUAACUUCUUtt; Antisense: AAGAAGUUAUAUC CAGCGCtt, starting from nucleotide 137 of the Bcl-2 sequence (accession number L14680). In this test, the siRNA control used was siRNA-Cy3 (QIAGEN; sense sequence: UUCUCCGAACGUGU CACGUdTdT-3′-Cy3 and the complement 5′-ACGUGACACGUUCGGAGAAdTdT-3′-Cy3) as an irrelevant control. The transfection of siRNA was performed using Lipofectamine 2000 (Invitrogen, Carlsbad, Calif., USA) according to the manufacturer's instructions. In brief, cells were harvested with 0.25% trypsin, 1 mM ethylenediaminetetraacetic acid (EDTA) in phosphate buffered saline (PBS) without Ca^2+ and Mg^2+, and plated in six-well plates at 10^5 per cm^2. Then 3.5 μl siRNA (100 μM solution) was mixed with 125 μl serum-free culture medium for 5 minutes at room temperature. During this incubation period, 5 μl of Lipofectamine 2000 was diluted in 125 μl serum-free culture medium. These two mixtures were combined, mixed gently, and incubated for 20 minutes at room temperature for complex formation. This 250 μl of siRNA-Lipofectamine mixture was then added into the cells in a final volume of 2.5 ml per well. The transfected cells were cultured and fed daily with fresh medium until they were assayed.
An avidin-biotin complex method was used for the immunohistochemical staining in the differentiated NSCs. Following washes with the 3% hydrogen peroxide, sodium azide and antigens were retrieved using a microwave. Each slide was then treated with antibodies for Bcl-2 (Upstate Biotechnology, Waltham, Mass., USA), Nestin (Chemicon, Temecula, Calif., USA), 4′, 6-diamidino-2-phenylindole (DAPI; Chemicon, Temecula, Calif., USA) and MAP2 (Chemicon, Temecula, Calif., USA). Immunoreactive signals were detected with a mixture of biotinylated rabbit anti-mouse IgG and Fluoresave (Calbiochem, La Jolla, Calif., USA) under confocal microscopy (Olympus, FV300). Each individual sample was analyzed in triplicate. Furthermore, apoptotic cells were identified by the TUNEL method (In Situ Cell Death Detection Kit, POD, Roche Boehringer Mannheim Corp., IN, USA) as described in Chiou et al., J. Immunol. 167, 4098-4103, 2001. Briefly, the cells with cover slips were washed with 1× phosphate buffered saline (PBS), fixed with 4% of paraformaldehyde for 10 minutes, permeabilized with 0.1% of triton X-100 for 5 mins, and incubated with the TUNEL reagent provided for 1 hour. Chromogenic development was then applied with 3-amino-9-ethyl-carbazole, and slides were counterstained with H & E stain. […]

NSCs = experiment: 5-HT in culture medium of NSCs by microdialysis with HPLC-ECD; type: cell-based, rat; details: p<0.05
Experimental: A microdialysis sampling system connected to the Petri dish was constructed in our laboratory according to the design originally described by Cheng et al., J. Chromatogr. A. 870, 405-411, 2000. The dialysis probe was made of a dialysis membrane 30 mm in length, with an outer diameter of 150 μm, and a nominal molecular weight cut-off of 13000. Ringer solution ([…]) was perfused through the probe at a flow-rate of 2 μl/min. Microdialysate samples were collected every 10 minutes. An HPLC-ED system (HTEC-500; Eicom, Kyoto, Japan) consisting of a three-electrode cell with an Ag/AgCl electrode as the reference electrode, a counter electrode and a graphite electrode as the working electrode was used to measure determine the levels of serotonin (5-HT). […] The column used for separation at room temperature (25° C.) was a PP-ODS (4.6×30 mm) (Eicom, Kyoto, Japan). The mobile phase, containing 0.1 M sodium phosphate buffer (0.1 M NaH2PO4: 0.1 M Na2HPO4=1000:160, v/v), 1% methanol, 500 mg/l sodium secanesulfonate and 50 mg/l EDTA, was adjusted to pH 6.0 with 5 M of NaOH with a flow rate of 0.5 ml/min. A volume of 10 μl of each microdialysate was injected manually into the chromatographic system and assayed on the same sampling day.

| SMILES | protein expression level of Bcl-2 in LPS-treated NSCs (Bcl-2; 3 μM IM vs 1, 2 μM IM-LPS-treated, only LPS-treated and control groups) | protein level of Bcl-2 (western blot) (Bcl-2; Day 3 IM-treated vs Day 3 non-IM-treated NSCs, p<0.05) | protein expression of Bcl-2 (immunohistochemistry) (Bcl-2; Day 7 IM-treated NSCs vs NSCs without IM treatment) | expression level of Bcl-2 protein (western blot) (Bcl-2; Day 7 IM-treated vs Day 3 or Day 5 IM-treated NSCs, p<0.05) | Bcl-2 expression in NSCs (Bcl-2; treatment with either agent alone) | 5-HT level in culture medium (NSCs; Day 7 and Day 14, IM-treated vs without IM-treatment NSCs) | Bcl-2 expression induced by IM in NSCs (Bcl-2; agent added to IM-treated NSCs) | production of 5-HT of IM-treated NSCs (NSCs; agent added, Day 7 and Day 14) |
| --- | --- | --- | --- | --- | --- | --- | --- | --- |
| CN(C)CCCN1c2ccccc2CCc2ccccc21 [IM, imipramine] | significantly increased | higher | significantly increased | significantly increased | activate | significantly higher |  |  |
| N#CC(=C(/N)Sc1ccccc1N)/C(C#N)=C(\N)Sc1ccccc1N [U0126] |  |  |  |  |  |  | effectively blocked | significantly diminished |
